pEC50, pIC50: −log10 of the molar value.
Assays:
GP2D (KRAS G12D) cells = experiment: 2D Cell Viability Assay (CellTiter-Glo); assay type: cell-based; conditions: GP2d, 96 h, 4 days, CellTiter-Glo luminescence
Procedure: Example B. 2D Cell Viability Assay
Compounds were tested in a 384-well format for their ability to inhibit the viability of GP2D (KRAS G12D) cells in 2D assays. Compounds were serially diluted (1:3) in DMSO. The LabCyte ECHO Acoustic dispenser system was used to pre-spot assay plates with 200 nL of test molecule per well. 1000 cells/well (40 μL volume per well) in RPMI medium with 10% FBS, and Penicillin-Streptomycin-Glutamine were plated in pre-spotted 384-well plates (Greiner, Catalog #781076) on the BioTEK EL406 liquid dispenser with a 5 μL dispensing cassette (BioTek 7170011). The plates were incubated at 37° C., 5% CO2 for 4 days before addition of CellTiter-Glo (CTG) reagent and measurement of luminescence signal. EC50 values were defined as the compound concentration that causes a 50% decrease in luminescence signal and were calculated using a sigmoidal dose-response model to generate curve fits.

GDP-loaded KRAS G12D = GDP-loaded KRAS G12D (Homo sapiens, UniProt P01116, G12D); experiment: KRAS G12D (GDP) Biochemical Assay (TR-FRET probe displacement); assay type: binding; conditions: 0.5 nM enzyme, 2 hours at room temperature
Chain of GDP-loaded KRAS G12D (P01116 1-188 isoform P01116-2 G12D): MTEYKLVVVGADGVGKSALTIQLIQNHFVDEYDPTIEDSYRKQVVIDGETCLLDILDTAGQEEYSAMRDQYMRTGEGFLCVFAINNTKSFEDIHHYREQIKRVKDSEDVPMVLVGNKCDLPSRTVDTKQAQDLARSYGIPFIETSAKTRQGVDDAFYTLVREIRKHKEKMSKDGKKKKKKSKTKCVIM
Procedure: Example A. KRAS G12D (GDP) Biochemical Assay
Compounds were tested for binding to GDP-loaded KRAS G12D in a 384-well assay format using a TR-FRET probe displacement assay in buffer consisting of 50 mM Hepes (pH 7.4), 150 mM NaCl, 5 mM MgCl2 and 0.005% Tween-20. […] Compounds were serially diluted (1:3) in DMSO. The LabCyte ECHO Acoustic dispenser system was used to pre-spot the assay plates (384-well Non-Binding Surface plates, Corning, Catalog #3824) with 50 nL of compound. The compounds were pre-incubated with 5 μL of 2× final enzyme concentration for 30 minutes before adding 5 μL of 2× final concentration of Eu-streptavidin and TR-FRET probe (10 μL final reaction volume). The plates were incubated at room temperature for 2 hours before measuring TR-FRET ratio on the Envision plate reader. IC50 values were defined as the compound concentration that causes a 50% decrease in TR-FRET ratio and were calculated using a sigmoidal dose-response model to generate curve fits.

Structure (SMILES) | pEC50 (GP2D (KRAS G12D) cells) | pIC50 (GDP-loaded KRAS G12D)
Cc1cc(N)nc(-c2c(F)c3c4c(nc(OC[C@@]56CCCN5C[C@H](F)C6)nc4c2F)N2C[C@H]4CC[C@H](N4)[C@H]2CC3)c1C(F)(F)F [Example 19, 6-((1S,4R,14aR)-10,12-difluoro-8-(((2R,7aS)-2-fluorotetrahydro-1H-pyrrolizin-7a(5H)-yl)methoxy)-1,2,3,4,5,13,14,14a-octahydro-1,4-epiminoazepino[1′,2′:1,7]azepino[2,3,4-de]quinazolin-11-yl)-4-methyl-5-(trifluoromethyl)pyridin-2-amine] | 8.48 | 9.74
Nc1nc2c(F)ccc(-c3nc4c5c(nc(OC[C@@]67CCCN6C[C@H](F)C7)nc5c3F)N3C[C@H]5CC[C@H](N5)[C@H]3CC4)c2s1 [Example 20, 4-fluoro-7-((5aR,6S,9R)-1-fluoro-12-(((2R,7aS)-2-fluorotetrahydro-1H-pyrrolizin-7a(5H)-yl)methoxy)-4,5,5a,6,7,8,9,10-octahydro-3,10a,11,13,14-pentaaza-6,9-methanonaphtho[1,8-ab]heptalen-2-yl)benzo[d]thiazol-2-amine] | < 7.00 | 8.09
C#Cc1c(F)ccc2cc(N)nc(-c3c(Cl)c4c5c(nc(OC[C@@]67CCCN6C[C@H](F)C7)nc5c3F)N3C[C@H]5CC[C@H](N5)[C@H]3CC4)c12 [Example 23, 1-((1S,4R,14aR)-12-chloro-10-fluoro-8-(((2R,7aS)-2-fluorotetrahydro-1H-pyrrolizin-7a(5H)-yl)methoxy)-1,2,3,4,5,13,14,14a-octahydro-1,4-epiminoazepino[1′,2′:1,7]azepino[2,3,4-de]quinazolin-11-yl)-8-ethynyl-7-fluoroisoquinolin-3-amine] | 8.21 | 9.80
Nc1cc(Cl)c(C(F)F)c(-c2nc3c4c(nc(OC[C@@]56CCCN5C[C@H](F)C6)nc4c2F)N2C[C@H]4CC[C@H](N4)[C@H]2CCC3)n1 [Example 24, 4-chloro-5-(difluoromethyl)-6-((6aR,7S,10R)-1-fluoro-13-(((2R,7aS)-2-fluorotetrahydro-1H-pyrrolizin-7a(5H)-yl)methoxy)-5,6,6a,7,8,9,10,11-octahydro-4H-3,11a,12,14,15-pentaaza-7,10-methanocyclohepta[4,5]cycloocta[1,2,3-de]naphthalen-2-yl)pyridin-2-amine] | < 7.00 | 7.96
N#Cc1c(N)sc2cccc(-c3c(F)c4c5c(nc(OC[C@@]67CCCN6C[C@H](F)C7)nc5c3F)N3C[C@H]5CC[C@H](N5)[C@H]3CC4)c12 [Example 25, 2-amino-4-((1S,4R,14aR)-10,12-difluoro-8-(((2R,7aS)-2-fluorotetrahydro-1H-pyrrolizin-7a(5H)-yl)methoxy)-1,2,3,4,5,13,14,14a-octahydro-1,4-epiminoazepino[1′,2′:1,7]azepino[2,3,4-de]quinazolin-11-yl)benzo[b]thiophene-3-carbonitrile] | 8.80 | 9.92
C#Cc1c(F)ccc2cc(N)nc(-c3nc4c5c(nc(OC[C@@]67CCCN6C[C@H](F)C7)nc5c3F)N3C[C@H]5CC[C@H](N5)[C@H]3CCC4)c12 [Example 26, 8-ethynyl-7-fluoro-1-((6aR,7S,10R)-1-fluoro-13-(((2R,7aS)-2-fluorotetrahydro-1H-pyrrolizin-7a(5H)-yl)methoxy)-5,6,6a,7,8,9,10,11-octahydro-4H-3,11a,12,14,15-pentaaza-7,10-methanocyclohepta[4,5]cycloocta[1,2,3-de]naphthalen-2-yl)isoquinolin-3-amine] | 8.39 | 9.40
C#Cc1c(F)ccc2cc(N)nc(-c3c(F)c4c5c(nc(OC[C@@]67CCCN6C[C@H](F)C7)nc5c3F)N3C[C@H]5CC[C@H](N5)[C@H]3CCC4)c12 [Example 61, (S)-1-((1S,4R,15aR)-10,12-difluoro-8-(((2R,7aS)-2-fluorotetrahydro-1H-pyrrolizin-7a(5H)-yl)methoxy)-2,3,4,5,13,14,15,15a-octahydro-1H-1,4-epiminoazepino[1′,2′:1,8]azocino[2,3,4-de]quinazolin-11-yl)-8-ethynyl-7-fluoroisoquinolin-3-amine] | 9.06 | 10.70

— patent publication US20250101042A1, “KRAS G12D MODULATING COMPOUNDS” (Gilead Sciences, Inc., priority 2023, published 2025)
